Columns and labels:
[1] = test system: MRSA strain NRS382 biofilms; experiment: Dynamic biofilm model, Live/Dead viability; assay type: cell-based, S. aureus; settings: Staphylococcus aureus, 2 h, read-out: viability in dynamic biofilms (percentage of live cells; controls 100%)
Protocol: Biofilms were pre-stained with the Live/Dead stain (see methods) and viewed with 20× magnification. FIG. 9b depicts bacterial viability. Analysis of bacterial viability in NRS382 dynamic biofilms is based on mean fluorescent intensities of the Live/Dead viability stain when exposed to 100 μg/ml of PGH K-L (1.4 μM), K-L-PTD1 (1.4 μM), or vancomycin (69 μM) at a flow rate of 0.5 ml/min for 2 h and compared to PBS. Error bars represent SEM (N=3) of three independent 100×100 pixel squares identically located in each biofilm z-stack. […]
In order to visualize the viability of S. aureus NRS382 biofilms, each chamber of the flow cell was fluorescently labeled by the Live/Dead BacLight™ staining kit (Invitrogen, Carlsbad, Calif.) for one hour. […] To quantify the viability of S. aureus NRS382 biofilms at various time points in the presence of different treatments, one image at the center of z-series (i.e. center of the biofilm) for each time point was selected to represent each treatment group. Three squares representing 100×100 pixels were drawn in each image and the mean intensity of live (green channel) and dead (red channel) cell populations were calculated by Zen 2010 digital imaging software (Carl Zeiss). […] The percentage of live cells remaining in biofilms after various treatments was statistically analyzed by an unpaired t-test.

[2] = test system: MRSA; settings: systemically delivered, mouse models; cited from earlier work

| SMILES | viability at 100 µg/mL [1] [%] | protection from MRSA bacteremia / survival at 48 hours post infection [2] [%] |
| --- | --- | --- |
| CN[C@H](CC(C)C)C(=O)N[C@H]1C(=O)N[C@@H](CC(N)=O)C(=O)N[C@H]2C(=O)N[C@H]3C(=O)N[C@H](C(=O)N[C@H](C(=O)O)c4cc(O)cc(O)c4-c4cc3ccc4O)[C@H](O)c3ccc(c(Cl)c3)Oc3cc2cc(c3O[C@@H]2O[C@H](CO)[C@@H](O)[C@H](O)[C@H]2O[C@H]2C[C@](C)(N)[C@H](O)[C@H](C)O2)Oc2ccc(cc2Cl)[C@H]1O [vancomycin] | 40 |  |
| Cc1onc(-c2ccccc2)c1C(=O)N[C@@H]1C(=O)N2[C@@H]1SC(C)(C)[C@@H]2C(=O)O [oxacillin] |  | 20 |
